In patent US20250289789A1, “REVERSIBLE LYSINE COVALENT MODIFIERS OF CDK2 AND USES THEREOF” (Terremoto Biosciences, Inc., priority 2023, published 2025):
Where two headings read alike, the source gives them in different places.

Columns and labels:
Type in all cases: cell-based
[1] = target: T1, CDK1-NanoLuc fusion with CCNB1 in 293T or 293 cells (Homo sapiens, UniProt P06493); assay: NanoBRET Target Engagement (TE) Intracellular Kinase Assay, CDK1/CCNB1; conditions: NanoBRET TE intracellular kinase assay, 2-hour incubation, read-out: NanoBRET-CDK1/B1 IC50
T1 construct: host or cells: 293T (ATCC CRL-3216) or 293 (ATCC CRL-1573)
T1 sequence (P06493 whole entry, the tested form may be a part): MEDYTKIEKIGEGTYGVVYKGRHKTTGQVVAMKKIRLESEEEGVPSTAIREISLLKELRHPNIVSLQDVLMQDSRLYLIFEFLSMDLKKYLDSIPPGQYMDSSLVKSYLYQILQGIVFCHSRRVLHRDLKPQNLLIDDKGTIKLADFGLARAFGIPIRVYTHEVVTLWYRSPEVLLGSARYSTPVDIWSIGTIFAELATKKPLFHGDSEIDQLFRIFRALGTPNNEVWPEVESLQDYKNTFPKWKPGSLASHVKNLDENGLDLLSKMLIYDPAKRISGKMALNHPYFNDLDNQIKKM
T1 sequence (P14635 whole entry partner, the tested form may be a part): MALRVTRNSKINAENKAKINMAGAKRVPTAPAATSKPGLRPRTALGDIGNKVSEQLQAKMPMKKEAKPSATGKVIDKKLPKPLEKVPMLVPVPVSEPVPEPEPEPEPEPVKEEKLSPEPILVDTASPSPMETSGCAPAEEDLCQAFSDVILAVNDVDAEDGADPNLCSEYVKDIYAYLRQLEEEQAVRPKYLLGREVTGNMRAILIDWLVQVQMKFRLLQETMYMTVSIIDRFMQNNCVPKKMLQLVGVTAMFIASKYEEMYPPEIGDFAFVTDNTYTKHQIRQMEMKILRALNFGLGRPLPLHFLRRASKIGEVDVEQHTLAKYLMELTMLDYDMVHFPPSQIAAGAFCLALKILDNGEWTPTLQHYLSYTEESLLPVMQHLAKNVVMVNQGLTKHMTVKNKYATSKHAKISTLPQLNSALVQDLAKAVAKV
Summary of the method: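 293T or 293 cells co-transfected with CDK1-NanoLuc and CCNB1 vectors, incubated 24 h, then exposed to NanoBRET Tracer K-10 plus compound for 2 h at 37° C. BRET ratio (610/450 nm) normalized to DMSO; IC50 from four-parameter logistic fit.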

[2] = target: T2, CDK2-NanoLuc fusion with CCNE1 in 293T or 293 cells (Homo sapiens, UniProt P24941); assay: NanoBRET Target Engagement (TE) Intracellular Kinase Assay, CDK2/CCNE1; conditions: 2-hour incubation
T2 construct: host or cells: 293T (ATCC CRL-3216) or 293 (ATCC CRL-1573)

[3] = target: T3, CDK4-NanoLuc fusion with CCND1 in 293T or 293 cells (Homo sapiens, UniProt P11802); assay: NanoBRET Target Engagement (TE) Intracellular Kinase Assay, CDK4/CCND1; conditions: NanoBRET TE intracellular kinase assay, 2-hour incubation, read-out: NanoBRET-CDK4/D1 IC50
T3 construct: host or cells: 293T (ATCC CRL-3216) or 293 (ATCC CRL-1573)
T3 sequence (P11802 whole entry, the tested form may be a part): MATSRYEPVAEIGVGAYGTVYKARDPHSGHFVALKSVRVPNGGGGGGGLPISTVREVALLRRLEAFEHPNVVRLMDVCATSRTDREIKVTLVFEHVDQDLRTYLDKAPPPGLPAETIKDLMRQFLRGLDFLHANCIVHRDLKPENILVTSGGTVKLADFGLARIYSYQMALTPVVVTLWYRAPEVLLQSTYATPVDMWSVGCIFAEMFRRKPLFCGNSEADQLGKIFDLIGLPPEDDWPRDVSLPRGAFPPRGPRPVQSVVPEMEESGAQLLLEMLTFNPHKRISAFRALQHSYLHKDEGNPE
T3 sequence (P24385 whole entry partner, the tested form may be a part): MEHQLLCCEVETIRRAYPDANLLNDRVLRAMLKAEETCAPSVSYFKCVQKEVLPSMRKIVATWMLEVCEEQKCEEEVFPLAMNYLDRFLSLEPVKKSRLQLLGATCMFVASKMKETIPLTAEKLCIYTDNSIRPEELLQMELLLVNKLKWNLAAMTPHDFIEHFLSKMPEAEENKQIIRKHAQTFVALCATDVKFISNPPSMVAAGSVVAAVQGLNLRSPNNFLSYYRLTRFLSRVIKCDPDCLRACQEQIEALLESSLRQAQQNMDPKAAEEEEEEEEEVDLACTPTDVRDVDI

[4] = tested on: Phospho-Rb Ser807/811 in OVCAR3 cells; assay: OVCAR3 Phospho-Rb Ser807/811 HTRF assay; conditions: Homo sapiens, OVCAR3 cells, Phospho-Rb Ser807/811 HTRF, 1 hour incubation, read-out: pRb-OVCAR3 IC50
Procedure: Cells were trypsinized and resuspended in 1 mM hydroxyurea (Sigma; H8627), 90% RPMI and 10% fetal bovine serum. […] Dose response curve normalized to DMSO control was plotted using four-parameter logistic model for IC50 calculation.

[5] = NanoBRET TE intracellular kinase assay, read-out: NanoBRET-CDK2/E1 IC50

Row | IC50 [1] | IC50 [2, 5] | IC50 [3] | IC50 ([4]; OVCAR-3, 1 h) | Compound | IC50 ([4]; OVCAR-3) | IC50 ([2]; NanoBRET-CDK2/E1 IC50, NanoBRET TE intracellular kinase assay)
1 | 0.0215 µM | 0.00126 µM | > 10 µM | 0.115 µM | COc1cccc(OCC(=O)Nc2cc([C@H]3CC[C@@H](OC(=O)NC(C)C)C3)[nH]n2)c1C=O [Compound 95, (1R,3S)-3-{5-[2-(2-formyl-3-methoxyphenoxy)acetamido]-2H-pyrazol-3-yl}cyclopentyl N-isopropylcarbamate; trifluoroacetic acid] |  | 
2 | 0.142 µM | 0.0167 µM | > 10 µM | 1.19 µM | CC(C)NC(=O)O[C@@H]1CC[C@H](c2cc(NC(=O)N3CC=C(c4cccc(O)c4C=O)C3)n[nH]2)C1 [Compound 78, (1R,3S)-3-(3-(3-(2-formyl-3-hydroxyphenyl)-2,5-dihydro-1H-pyrrole-1-carboxamido)-1H-pyrazol-5-yl)cyclopentyl isopropylcarbamate] |  | 
3 | 0.0361 µM | 0.00627 µM | 2.89 µM | 0.477 µM | CC(C)NC(=O)O[C@@H]1CC[C@H](c2cc(NC(=O)c3cc(-c4cccc(O)c4C=O)nn3C3CC3)n[nH]2)C1 [Compound 61, (1R,3S)-3-(3-(1-cyclopropyl-3-(2-formyl-3-hydroxyphenyl)-1H-pyrazole-5-carboxamido)-1H-pyrazol-5-yl)cyclopentyl isopropylcarbamate] |  | 
4 | 0.00414 µM | 0.00185 µM | 4.37 µM | 0.0176 µM | COc1cc(OC)c(C=O)c(OCC(=O)Nc2cc([C@H]3C[C@@H](OC(=O)N4CCC4(C)C)C3)[nH]n2)c1 [Compound 109, (1s,3s)-3-(3-(2-(2-formyl-3,5-dimethoxyphenoxy)acetamido)-1H-pyrazol-5-yl)cyclobutyl 2,2-dimethylazetidine-1-carboxylate] |  | 
5 | 0.00425 µM | 0.00227 µM | 4.17 µM | 0.0344 µM | COc1cc(O)c(C=O)c(OCC(=O)Nc2cc([C@H]3CC[C@@H](OC(=O)N4CC5CC4C5)C3)[nH]n2)c1 [Compound 228] |  | 
6 | 0.0188 µM | 0.0023 µM | > 10 µM | 0.119 µM | CCCNC(=O)O[C@@H]1CC[C@H](c2cc(NC(=O)COc3cccc(O)c3C=O)n[nH]2)C1 [Compound 81, (1R,3S)-3-{5-[2-(2-formyl-3-hydroxyphenoxy)acetamido]-2H-pyrazol-3-yl}cyclopentyl N-propylcarbamate; trifluoroacetic acid] |  | 
7 | 0.0129 µM | 0.0041 µM | 4.68 µM | 0.0284 µM | COc1cc(O)c(C=O)c(OCC(=O)Nc2cc([C@H]3CC[C@@H](OC(=O)N4[C@H](C)COC[C@@H]4C)C3)[nH]n2)c1 [Compound 201] |  | 
8 | 0.00623 µM | 0.00475 µM | 2.49 µM | 0.0833 µM | CC1(NC(=O)O[C@@H]2CC[C@H](c3cc(NC(=O)COc4cccc(O)c4C=O)n[nH]3)C2)CCC1 [Compound 83, (1R,3S)-3-{5-[2-(2-formyl-3-hydroxyphenoxy)acetamido]-2H-pyrazol-3-yl}cyclopentyl N-(1-methylcyclobutyl) carbamate; trifluoroacetic acid] |  | 
9 | 0.175 µM | 0.0234 µM | > 10 µM | 1.69 µM | CC(C)NC(=O)O[C@@H]1CC[C@H](c2cc(NC(=O)c3cn(-c4cccc(O)c4C=O)nc3C(F)F)n[nH]2)C1 [Compound 54, (1R,3S)-3-(3-(3-(difluoromethyl)-1-(2-formyl-3-hydroxyphenyl)-1H-pyrazole-4-carboxamido)-1H-pyrazol-5-yl)cyclopentyl isopropylcarbamate] |  | 
10 | 0.078 µM | 0.0164 µM | 2.42 µM | 0.941 µM | CC(C)NC(=O)O[C@@H]1CC[C@H](c2cc(NC(=O)c3cc(Oc4cccc(O)c4C=O)nn3C)n[nH]2)C1 [Compound 19, (1R,3S)-3-{5-[5-(2-formyl-3-hydroxyphenoxy)-2-methylpyrazole-3-amido]-2H-pyrazol-3-yl}cyclopentyl N-isopropylcarbamate] |  | 
11 | 0.00241 µM | 0.00223 µM | 0.484 µM | 0.0176 µM | COc1cc(O)c(C=O)c(OCC(=O)Nc2cc([C@H]3CC[C@@H](OC(=O)N4CCCC4(C)C)C3)[nH]n2)c1 [Compound 243] |  | 
12 | 0.00423 µM | 0.00195 µM | 0.844 µM | 0.0226 µM | COc1cc(O)c(C=O)c(OCC(=O)Nc2cc([C@H]3CC[C@@H](OC(=O)N4C[C@@H]5CC[C@H]4C5)C3)[nH]n2)c1 [Compound 219] |  | 
13 | 0.27 µM | 0.0344 µM | 7.23 µM | 1.87 µM | CC(C)NC(=O)O[C@@H]1CC[C@H](c2cc(NC(=O)C3Cc4ccc(O)c(C=O)c4O3)n[nH]2)C1 (stereo partly drawn) [Compound 62, (1R,3S)-3-(3-(7-formyl-6-hydroxy-2,3-dihydrobenzo-furan-2-carboxamido)-1H-pyrazol-5-yl)cyclopentyl isopropylcarbamate] |  | 
14 | 0.0353 µM | 0.00673 µM | 0.202 µM | 0.475 µM | CC(C)NC(=O)O[C@@H]1CC[C@H](c2cc(NC(=O)Cc3cnc(-c4cccc(O)c4C=O)s3)n[nH]2)C1 [Compound 67, (1R,3S)-3-(3-(2-(2-(2-formyl-3-hydroxyphenyl)thiazol-5-yl)acetamido)-1H-pyrazol-5-yl)cyclopentyl isopropylcarbamate; trifluoroacetic acid] |  | 
15 | 0.155 µM | 0.0568 µM | > 3.46 µM | 0.375 µM | COc1cc(OC)c2c(c1C=O)C[C@H](C(=O)Nc1cc([C@H]3C[C@@H](OC(=O)NC(C)C)C3)[nH]n1)C2 [Compound 214] |  | 
16 | 0.0212 µM | 0.00987 µM | 7.91 µM | 0.0418 µM | COc1cc(O)c(C=O)c(OCC(=O)Nc2cc([C@H]3CC[C@@H](OC(=O)NCCC#N)C3)[nH]n2)c1 [Compound 208] |  | 
17 | 0.0151 µM | 0.0065 µM | 3.63 µM | 0.23 µM | CCn1nc(-c2cccc(O)c2C=O)cc1C(=O)Nc1cc([C@H]2CC[C@@H](OC(=O)NC(C)C)C2)[nH]n1 [Compound 60, (1R,3S)-3-{5-[2-ethyl-5-(2-formyl-3-hydroxyphenyl)pyrazole-3-amido]-2H-pyrazol-3-yl}cyclopentyl N-isopropylcarbamate; trifluoroacetic acid] |  | 

Row | Compound | IC50 [1] | IC50 [2, 5] | IC50 [3] | IC50 ([4]; OVCAR-3, 1 h) | IC50 ([4]; OVCAR-3) | IC50 ([2]; NanoBRET-CDK2/E1 IC50, NanoBRET TE intracellular kinase assay)
18 | COc1cc(OC)c(C=O)c(OCC(=O)Nc2cc([C@H]3C[C@@H](OC(=O)N4C5COCC4C5)C3)[nH]n2)c1 [Compound 108, (1s,3s)-3-(3-(2-(2-formyl-3,5-dimethoxyphenoxy)acetamido)-1H-pyrazol-5-yl)cyclobutyl 3-oxa-6-azabicyclo[3.1.1]heptane-6-carboxylate] | 0.0152 µM | 0.00365 µM | > 10 µM | 0.0444 µM |  | 
19 | CC(C)NC(=O)O[C@@H]1CC[C@H](c2cc(NC(=O)c3cnn(-c4cccc(O)c4C=O)c3)n[nH]2)C1 [Compound 8, (1R,3S)-3-{5-[1-(2-formyl-3-hydroxyphenyl)pyrazole-4-amido]-2H-pyrazol-3-yl}cyclopentyl N-isopropylcarbamate; trifluoroacetic acid] | 0.0735 µM | 0.0249 µM | 5.46 µM |  | 0.88 µM | 
20 | C[C@H]1CCCN1C(=O)O[C@@H]1CC[C@H](c2cc(NC(=O)COc3cccc(O)c3C=O)n[nH]2)C1 [Compound 102, (S)-((1R,3S)-3-(3-(2-(2-formyl-3-hydroxyphenoxy)acetamido)-1H-pyrazol-5-yl)cyclopentyl) 2-methylpyrrolidine-1-carboxylate; trifluoroacetic acid] | 0.00839 µM |  | 2.86 µM |  | 0.0782 µM | 0.00416 µM
